The values below come from ChEMBL document CHEMBL4265876, “Natural Products with Heteroatom-Rich Ring Systems” (J Nat Prod, 2017).

One test deals with Human alphaherpesvirus 1. Kind of test: Antiviral activity against HSV1. Type of test: functional, organism-based.
The subject of a further test is Influenza A virus. The test is described as follows: Antiviral activity against Influenza A virus (A/Hanfang/359/95(H3N2)). Type of test: functional, organism-based.
Test [1] deals with A549. Kind of test: Cytotoxicity against human A549 cells assessed as decrease in cell viability after 48 hrs by MTT assay. The format is functional, cell-based. To be noted: A549, 48 h. (Tetrazolium assays rely on reduction of a dye to a coloured formazan, in cell work by metabolically active cells.)
For another test, the system named is K562. Kind of test: Cytotoxicity against human K562 cells assessed as decrease in cell viability after 48 hrs by MTT assay. The format is functional, cell-based. To be noted: K562, 48 h.
The subject of test [2] is MDA-MB-231. The test is described as follows: Cytotoxicity against human MDA-MB-231 cells. Type of test: functional, cell-based.
Another test concerns ACHN. Kind of test: Cytotoxicity against human ACHN cells. Type of test: functional, cell-based.
A further test has as its system NCI-H460. Kind of test: Cytotoxicity against human NCI-H460 cells. The format is functional, cell-based.
For the next test, the system named is DLD-1. The test is described as follows: Cytotoxicity against human DLD1 cells. Type of test: functional, cell-based.
Another test concerns Ruegeria atlantica. The test is described as follows: […] activity against Ruegeria atlantica assessed as inhibition zone at 50 ug/disk. Type of test: functional. To be noted: read-out: IZ.
Test [3] relates to HL-60. Kind of test: Cytotoxicity against human HL60 cells. The format is functional, cell-based.
Another test has as its system V79. Kind of test: Cytotoxicity against chinese hamster V79 cells. Type of test: cell-based. As to conditions: Cricetulus griseus.
A further test has as its system HCT-116. The test is described as follows: Cytotoxicity against human HCT116 cells. The format is functional, cell-based.
The next test concerns HGC-27. Kind of test: Growth inhibition of human HGC27 cells after 48 hrs by MTT assay. Type of test: functional, cell-based. As to conditions: HGC-27, 48 h.
The target of test [4] is Sodium-dependent dopamine transporter (Homo sapiens) (UniProt Q01959). Kind of test: Inhibition of dopamine transporter (unknown origin) at 10 uM.
Another test has as its system C6. Kind of test: Cytotoxicity against rat C6 cells assessed as decrease in cell viability. The format is functional, cell-based.
A further test has as its system 3T3-L1. The test is described as follows: Cytotoxicity against mouse 3T3L1 cells assessed as decrease in cell viability. Type of test: cell-based.
Another test relates to HeLa. The test is described as follows: Cytotoxicity against human HeLa cells assessed as decrease in cell viability. The format is functional, cell-based.
Test [5] concerns the target Sodium-dependent noradrenaline transporter (Homo sapiens) (UniProt P23975). The test is described as follows: Inhibition of norepinephrine transporter (unknown origin) at 10 uM.
For test [6], the target named is C-X-C chemokine receptor type 4 (Rattus norvegicus) (UniProt O08565). The test is described as follows: Antagonist activity at CXCR4 in rat GH4C1 cells assessed as inhibition of CXCL12-induced DNA synthesis at 10 uM after 72 hrs by BrdU incorporation assay. Type of test: functional, cell-based. For orientation: Uptake of a labelled nucleoside into DNA is a usual measure of proliferation.

For test [7], the target named is Sodium-dependent serotonin transporter (Homo sapiens) (UniProt P31645). The test is described as follows: Inhibition of serotonin transporter (unknown origin) at 10 uM.
Test [8] addresses Mu-type opioid receptor (Homo sapiens) (UniProt P35372). Kind of test: Inhibition of mu opioid receptor (unknown origin) at 10 uM.
The target in test [9] is C-X-C chemokine receptor type 4 (Rattus norvegicus) (UniProt O08565). Kind of test: Antagonist activity at CXCR4 in rat GH4C1 cells assessed as inhibition of CXCL12-induced cell migration at 0.1 uM after 72 hrs by BrdU incorporation assay. Type of test: functional, cell-based.
The test system of another test is Cryptococcus neoformans. Kind of test: Antifungal activity against Cryptococcus neoformans. Type of test: functional.
Test [10] deals with Candida albicans. The test is described as follows: Antifungal activity against Candida albicans YO109. Type of test: functional.
Another test deals with Trichophyton rubrum. Kind of test: Antifungal activity against Trichophyton rubrum. The format is functional.
The test system of test [11] is Candida albicans. The test is described as follows: Antifungal activity against Candida albicans SC5314. The format is functional.
For the next test, the system named is HT-29. Kind of test: Cytotoxicity against human HT-29 cells. Type of test: functional, cell-based.
The next test relates to PC-3. Kind of test: Cytotoxicity against human PC3 cells. Type of test: functional, cell-based.
The subject of the next test is UMUC3. The test is described as follows: Cytotoxicity against human UM-UC-3 cells. The format is functional, cell-based.
A further test deals with MIA PaCa-2. The test is described as follows: Cytotoxicity against human MIAPaCa2 cells. The format is functional, cell-based.
Test [12] relates to MDA-MB-231. The test is described as follows: Cytotoxicity against human MDA231 cells. The format is functional, cell-based.
The subject of the next test is Mycobacterium. Kind of test: Antibacterial activity against Mycobacterium B5. The format is functional.
Test [13] concerns Clavibacter michiganensis. Kind of test: Antibacterial activity against Clavibacter michiganensis. The format is functional.
Test [14] relates to Xanthomonas citri pv. malvacearum. Kind of test: Antibacterial activity against Xanthomonas malvacearum. The format is functional.
The subject of a further test is Ehrlich. Kind of test: Antitumor activity against mouse Ehrlich carcinoma cells xenografted in white mouse assessed as growth inhibition at 0.2 mg/kg, ip for 7 days. To be noted: 168 h, read-out: GI. The format is functional.
In the next test the test system is Bacillus subtilis. The test is described as follows: […] activity against Bacillus subtilis assessed as inhibition zone at 120 ug/disk. Type of test: functional. To be noted: read-out: IZ.
For test [15], the system named is Mycobacterium tuberculosis. The test is described as follows: Antibacterial activity against Mycobacterium tuberculosis H37Rv. The format is functional.
In a further test the test system is P388. The test is described as follows: Cytotoxicity against mouse P388 cells. The format is functional, cell-based.
The test system of test [16] is Candida albicans. The test is described as follows: Antifungal activity against Candida albicans assessed as inhibition zone at 120 ug/disk. To be noted: read-out: IZ. Type of test: functional.
Test [17] relates to HL-60. Kind of test: Cytotoxicity against human HL60 cells by MTT assay. The format is functional, cell-based.
The next test concerns MCF7. Kind of test: Cytotoxicity against human MCF7 cells by MTT assay. Type of test: functional, cell-based.
The test system of a further test is SW480. Kind of test: Cytotoxicity against human SW480 cells by MTT assay. Type of test: functional, cell-based.
The next test concerns SMMC-7721. Kind of test: Cytotoxicity against human SMMC7721 cells by MTT assay. Type of test: functional, cell-based.
The test system of test [18] is A549. The test is described as follows: Cytotoxicity against human A549 cells by MTT assay. The format is functional, cell-based.
For test [19], the system named is Trypanosoma cruzi. Kind of test: Antitrypanosomal activity against Trypanosoma cruzi Y intracellular amastigotes. Type of test: functional, organism-based.
Test [20] deals with Trypanosoma cruzi. Kind of test: Antitrypanosomal activity against Trypanosoma cruzi Y by MTT assay. The format is functional, organism-based.

≈ marks a conversion by molar mass, not a printed value.

C-X-C chemokine receptor type 4 (Rattus norvegicus), sequence (O08565 whole entry): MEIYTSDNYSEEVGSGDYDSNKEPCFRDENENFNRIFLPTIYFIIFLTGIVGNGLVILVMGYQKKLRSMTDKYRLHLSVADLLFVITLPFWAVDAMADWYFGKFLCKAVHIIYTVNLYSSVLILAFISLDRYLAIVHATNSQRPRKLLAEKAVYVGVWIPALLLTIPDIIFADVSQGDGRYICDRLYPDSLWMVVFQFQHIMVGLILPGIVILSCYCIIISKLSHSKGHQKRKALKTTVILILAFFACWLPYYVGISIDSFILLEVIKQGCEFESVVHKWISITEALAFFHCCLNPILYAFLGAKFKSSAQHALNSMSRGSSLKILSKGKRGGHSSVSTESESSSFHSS
Mu-type opioid receptor (Homo sapiens), sequence (P35372 whole entry): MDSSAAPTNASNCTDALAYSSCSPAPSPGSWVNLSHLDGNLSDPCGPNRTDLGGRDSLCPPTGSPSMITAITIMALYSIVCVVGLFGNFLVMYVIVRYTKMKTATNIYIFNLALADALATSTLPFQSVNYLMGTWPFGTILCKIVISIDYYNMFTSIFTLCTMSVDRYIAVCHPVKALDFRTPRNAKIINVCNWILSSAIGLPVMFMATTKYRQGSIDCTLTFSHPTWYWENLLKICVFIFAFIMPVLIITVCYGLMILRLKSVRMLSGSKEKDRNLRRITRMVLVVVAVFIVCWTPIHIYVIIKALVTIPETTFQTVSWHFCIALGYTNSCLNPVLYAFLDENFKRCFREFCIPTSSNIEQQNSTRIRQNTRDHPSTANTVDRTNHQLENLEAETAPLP
Sodium-dependent noradrenaline transporter (Homo sapiens), sequence (P23975 whole entry): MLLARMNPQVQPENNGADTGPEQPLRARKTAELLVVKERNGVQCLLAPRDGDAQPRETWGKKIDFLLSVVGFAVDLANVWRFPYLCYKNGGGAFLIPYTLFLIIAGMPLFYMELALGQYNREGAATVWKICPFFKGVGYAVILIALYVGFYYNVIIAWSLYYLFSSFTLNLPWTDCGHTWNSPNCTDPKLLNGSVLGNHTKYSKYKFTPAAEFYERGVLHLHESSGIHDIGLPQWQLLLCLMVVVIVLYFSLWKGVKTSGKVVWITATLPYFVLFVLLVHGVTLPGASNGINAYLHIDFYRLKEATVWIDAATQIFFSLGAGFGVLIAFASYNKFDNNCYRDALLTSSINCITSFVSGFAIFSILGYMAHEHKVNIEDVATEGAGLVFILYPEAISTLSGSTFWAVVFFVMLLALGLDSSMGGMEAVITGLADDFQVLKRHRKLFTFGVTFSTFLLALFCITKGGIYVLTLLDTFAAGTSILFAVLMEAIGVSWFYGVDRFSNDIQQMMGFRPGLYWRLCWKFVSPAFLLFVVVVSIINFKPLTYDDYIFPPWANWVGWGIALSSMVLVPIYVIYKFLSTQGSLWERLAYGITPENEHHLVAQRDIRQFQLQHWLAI
Sodium-dependent serotonin transporter (Homo sapiens), sequence (P31645 whole entry, looked up): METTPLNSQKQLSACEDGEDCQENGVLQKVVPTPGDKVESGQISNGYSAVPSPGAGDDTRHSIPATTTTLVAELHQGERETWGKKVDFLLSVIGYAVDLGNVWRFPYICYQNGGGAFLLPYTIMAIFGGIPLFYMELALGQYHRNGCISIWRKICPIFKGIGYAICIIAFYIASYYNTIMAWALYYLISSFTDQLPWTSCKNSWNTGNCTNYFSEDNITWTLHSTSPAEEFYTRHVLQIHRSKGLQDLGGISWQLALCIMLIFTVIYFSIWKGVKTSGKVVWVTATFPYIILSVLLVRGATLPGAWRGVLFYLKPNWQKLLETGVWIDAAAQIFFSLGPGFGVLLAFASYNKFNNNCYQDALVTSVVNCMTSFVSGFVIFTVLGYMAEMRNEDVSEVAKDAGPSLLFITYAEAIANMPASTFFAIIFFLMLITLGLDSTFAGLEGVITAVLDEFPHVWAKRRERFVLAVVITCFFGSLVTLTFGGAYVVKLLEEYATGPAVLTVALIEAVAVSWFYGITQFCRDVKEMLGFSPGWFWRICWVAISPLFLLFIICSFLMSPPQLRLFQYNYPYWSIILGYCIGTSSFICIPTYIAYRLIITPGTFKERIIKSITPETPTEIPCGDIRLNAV
Sodium-dependent dopamine transporter (Homo sapiens), sequence (Q01959 whole entry): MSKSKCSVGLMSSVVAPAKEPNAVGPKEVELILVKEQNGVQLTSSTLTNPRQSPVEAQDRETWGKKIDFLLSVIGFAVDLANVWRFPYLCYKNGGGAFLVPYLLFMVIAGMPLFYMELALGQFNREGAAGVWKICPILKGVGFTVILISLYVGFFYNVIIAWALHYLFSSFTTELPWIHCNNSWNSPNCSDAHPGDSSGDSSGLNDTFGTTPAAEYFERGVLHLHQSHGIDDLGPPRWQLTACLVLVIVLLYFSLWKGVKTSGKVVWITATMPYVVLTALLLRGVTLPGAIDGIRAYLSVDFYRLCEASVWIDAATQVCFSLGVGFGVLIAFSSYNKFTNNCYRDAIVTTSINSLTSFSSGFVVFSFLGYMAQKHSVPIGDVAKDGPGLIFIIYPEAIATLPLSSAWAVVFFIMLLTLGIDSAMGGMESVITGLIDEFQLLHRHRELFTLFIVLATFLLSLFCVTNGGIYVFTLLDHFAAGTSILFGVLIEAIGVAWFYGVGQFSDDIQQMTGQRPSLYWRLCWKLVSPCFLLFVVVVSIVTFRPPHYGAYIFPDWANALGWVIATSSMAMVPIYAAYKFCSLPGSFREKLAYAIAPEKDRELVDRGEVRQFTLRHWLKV

In general, IC50 refers to the concentration needed to halve the response being measured. For `C=C[C@@H](O)Cc1nsc(C2=CCCS[C@]23C(=O)Nc2ccccc23)n1`, the IC50 in the test on Human alphaherpesvirus 1 and with Influenza A virus was 33300 nM each time.

With `CC1=C(c2ccccc2)N(C)NC(=O)N1`, the IC50 was 21800 nM with A549 [1] and 66900 nM with K562.

Take `COc1c(SC)c(CCN(C)C)c2sc3c(OC)c(OC)c(SC)c(CCN(C)C)c3ssc2c1OC` [LISSOCLIBADIN 2]: the IC50 with MDA-MB-231 [2] turned out to be 200 nM; in the test with ACHN, 240 nM; with NCI-H460 it was 270 nM; with DLD-1, 100 nM; in the test on HL-60 [3], 80 nM; with V79, 210 nM. The midpoint of inhibition with HCT-116, the IC50, lay at 140 nM. The zone of inhibition at 50 µg/disc with Ruegeria atlantica turned out to be 28.2 mm.

In the test on HGC-27, `Oc1ccc(Cc2nsc(Cc3ccc(O)cc3)n2)cc1` gave an IC50 of 172000 nM.

In general, inhibition refers to the drop in the measured response relative to a control, in per cent. For the molecule `N=C(N)NCCCCCNc1noc(Cc2c[nH]c3cc(Br)ccc23)n1`, the inhibition was found to be 101% in test [4]; 68% in test [5]; 50% in test [6]; 22% in test [7]; 103% in test [8]; 100% in test [9]. For the same molecule, the IC50 in the test with C6 was 1500 nM; in the test on 3T3-L1 it was 140 nM; in the test with HeLa it was 1500 nM.

Broadly, the MIC80 is an inhibitory concentration at the 80% level, which refers to growth in some studies and to a panel of isolates in others. With `CC[C@H]1CC/C(=C2\C(=O)O[C@H](C)C2=O)O1`, the MIC80 with Cryptococcus neoformans is 16 µg/mL (≈ 76.1 µM); against Candida albicans [10] it was 8 µg/mL (≈ 38.1 µM); in the test on Trichophyton rubrum it was 64 µg/mL (≈ 304 µM); in the test on Candida albicans [11], 32 µg/mL (≈ 152 µM).

For the molecule `COc1cc(CCN)c2c(c1OC)SS[S+]2[O-]` (stereo unspecified), the IC50 in the test on HT-29, in the test on PC-3, with UMUC3, with MIA PaCa-2 and in the test with MDA-MB-231 [12] was 2.4 to 11.9 nM throughout.

The term MIC denotes the lowest concentration found to suppress growth. Low values mean a more susceptible organism, high ones a less susceptible organism. `COc1nnc2nn(C)cnc1-2`: the MIC (with Mycobacterium; in test [13]; in test [14]) was 5000 to 50000 µg/mL (≈ 30300 to 303000 µM) each time. For the same molecule, in the test with Ehrlich, the inhibition in vivo at 0.2 mg/kg stood at 40%.

As to `COc1cc(C2(c3ncc[nH]3)SSSCC2O)ccc1O` (single isomer, unassigned; (+)), the zone of inhibition at 120 µg/disc in the test with Bacillus subtilis and in the test with Candida albicans [16] was 4 mm throughout. Further, in test [15], the Activity stood at 10%. Half-maximal inhibition in the test with P388 (IC50) required 21600 nM.

Consider `CN1CC[C@]23c4ccccc4N[C@H]1[C@@]21CCN2CN4c5ccccc5[C@@]56CCN(C)[C@@]45N(c4c6cccc41)[C@@H]23`, for which the IC50 with HL-60 [17], with MCF7, in the test with SW480, with SMMC-7721 and with A549 [18] was more than 40000 nM in each case.

Turning to `C=C(C)C1CNC(NCC=C(C)C)=NO1` (stereo unspecified), the IC50 amounted to 27 µg/mL (≈ 129 µM) in the test with Trypanosoma cruzi [19] and 93 µg/mL (≈ 444 µM) with Trypanosoma cruzi [20].
